These are literature values, as cited in PMC12434536, “Radiosynthesis and Preclinical Evaluation of a Carbon-11 Labeled Phosphodiesterase 7 Inhibitor for PET Neuroimaging” (ACS Medicinal Chemistry Letters, 2025).

The subject of one series is PDE4. The settings on record: Figure 1, literature compounds; cited from earlier work.
Series [1] deals with PDE7. As to conditions: Figure 1, literature compounds; cited from earlier work.
The test system of the next series is PDE4B. As to conditions: Figure 1, literature compounds; cited from earlier work.
The subject of another series is PDE7A. As to conditions: Figure 1, literature compounds; cited from earlier work.
The subject of a further series is PDE7A1. The settings on record: Figure 1, literature compounds; cited from earlier work.
Series [2] has as its system PDE7. As to conditions: cited from earlier work.

Like-named read-outs stand apart in the source and are kept apart here.

For the compound `O=C1NS(=O)(=O)N(Cc2ccc(Cl)c(Cl)c2)c2ccccc21` [Compound 1], the concentration for half-maximal inhibition (IC50) (commonly the concentration needed to halve the response being measured) in the series on PDE4 is 19000 nM; in the series on PDE7 [1] it was 8000 nM.
For `COc1ccc(C(=O)CN2c3c(sc4ccccc34)C(=O)NS2(=O)=O)cc1` [Compound 2], the half-maximal inhibitory concentration (IC50) in the series with PDE4 is 30000 nM.
Consider `Nc1nc2c(nc(Br)n2C2CCCc3cccc(Br)c32)c(=O)[nH]1` (stereo not drawn) [Compound 3], for which the half-maximal inhibitory concentration (IC50) with PDE7 [1] was 1210 nM.
Regarding `CCOC(=O)c1sc(Nc2nc(NCc3ccc(S(N)(=O)=O)cc3)c3c(ncn3CC)n2)nc1C` [Compound 4], in the series with PDE7 [1], the IC50 is 11 nM.
Regarding `CCCCOc1nc2c(c(=O)n(C)c(=O)n2C)n1CCCC(=O)Nc1cc(C(C)(C)C)ccc1O` [Compound 5], the IC50 was 5430 nM with PDE4B and 5070 nM in the series on PDE7A.
With `CCn1c(NC(C)C)nc2c(C3CCN(C(C)=O)C3)csc2c1=O` (stereo not drawn) [Compound 6], the IC50 with PDE4B is 1900 nM; in the series with PDE7A, 15 nM.
Turning to `CCOC(=O)c1sc(Nc2nc(N3CCNCC3)c3c(n2)N(Cc2cc(OC)c(OC)c(OC)c2)CC3)nc1C` [Compound 7], the half-maximal inhibitory concentration (IC50) in the series with PDE7 [1] is 6 nM.
`O=[N+]([O-])c1ccc(Sc2ccncc2)c(Cl)c1` [Compound 10]: the IC50 in the series on PDE7 [1] was 180 nM.
`COc1cc(COC(=O)c2ccc(-c3ccccc3)o2)cc(OC)c1OC` [Compound 11]: the half-maximal inhibitory concentration (IC50) in the series on PDE7A1 is 5100 nM.
As to `O=c1[nH]c(=S)[nH]c2cc(F)c(F)cc12` [Compound 15], the IC50 in the series on PDE7A was 74 nM.
Regarding `Cn1c(-c2ccoc2)nc(=O)c2ccccc21` [Compound 16], the IC50 with PDE7A was 96 nM.
Take `O=C1Nc2ccc(Cl)c(Cl)c2C2(CCCCC2)N1` [Compound 18]: in the series on PDE7 [1], the IC50 was 14 nM.
For the compound `O=C1Nc2c(Br)cccc2C2(CCCCC2)N1` [Compound 19], in the series on PDE7 [1], the IC50 is 70 nM.
On to `COc1ccc(-c2cc3c(n2-c2ccc(S(=O)(=O)Nc4nc(C)cc(C)n4)cc2)CCC(N2CCN(C)CC2)C3)cc1C` (stereo not drawn) [Compound 20], for which the IC50 in the series with PDE4 is 630 nM; in the series with PDE7A, 14 nM.
As for `COc1ccc(C2=NN(C3CCN(C(=O)N4CCOCC4)CC3)C(=O)C3CC=CCC23)cc1Cl` (stereo not drawn) [Compound 21], the values for the concentration for half-maximal inhibition (IC50) in the series with PDE4 and with PDE7 [1] were 2.3 nM and 23 nM, respectively.
For `COc1ccccc1N1CCN(CCCC(=O)Nc2ccc(C(C)(C)C)cc2)CC1` [Compound 22], the figures for the IC50 with PDE4B and in the series with PDE7A were 96000 nM and 27000 nM, respectively.
As to `O=C1Nc2c(Cl)ccc(OCC[18F])c2C2(CCCCC2)N1` [[^18F]-MICA-003], the “affinity to PDE7” value in the series on PDE7 [2] (ref Thomae et al.) is 17 nM.
In the case of `O=C1Nc2c(Cl)ccc(Oc3c(F)cccc3C(=O)N3CC([18F])C3)c2C2(CCCCC2)N1` [[^18F]-P7-2302], the “affinity to PDE7” value in the series on PDE7 [2] (earlier 18F-isotopologue of the same spiro quinazoline structure) is 0.18 nM.
